Measurements as given in patent US20150210755A1, “ANTI-POLY-N-ACETYL GLUCOSAMINE (PNAG) MONOCLONAL ANTIBODY AND USES THEREOF FOR THE PREVENTION OR TREATMENT OF PNAG EXPRESSING BACTERIAL INFECTION” (SANOFI, priority 2012, published 2015).

System: methicillin sensitive S. aureus (strain MN8)
Assay: Murine lethal septicemia model in immuno-competent mice
Type: in vivo
Settings: Vancomycin 30 mg/kg
Description: Differences in viable bacterial counts between control and drug-treated groups were analyzed by 1-way ANOVA followed by Dunnett's adjustment for multiplicity. For lethal septicemia, differences in survival between control and drug-treated groups were performed using a Log Rank test followed by a Bonferroni-Holm's adjustment for multiplicity

## CN[C@H](CC(C)C)C(=O)N[C@H]1C(=O)N[C@@H](CC(N)=O)C(=O)N[C@H]2C(=O)N[C@H]3C(=O)N[C@H](C(=O)N[C@H](C(=O)O)c4cc(O)cc(O)c4-c4cc3ccc4O)[C@H](O)c3ccc(c(Cl)c3)Oc3cc2cc(c3O[C@@H]2O[C@H](CO)[C@@H](O)[C@H](O)[C@H]2O[C@H]2C[C@](C)(N)[C@H](O)[C@H](C)O2)Oc2ccc(cc2Cl)[C@H]1O [Vancomycin]
  % Survival (96 h post-infection): 100%
